Patent US20160199406A1, “NON-[…] IN COMBINATION WITH LIQUID […] FOR ORGAN PROTECTION” (priority 2013, published 2016)

Key:
[1] = normobaric conditions, cited from earlier work
[2] = system: injured retinal ganglion cells; test: Annexin V-PeCy7 flow cytometric evaluation of early apoptosis in injured retinal ganglion cells after unilateral optic nerve axotomy; format: in vivo, B6.Cg-Tg(Thy1-YFP)16Jrs/J mice
Source text: B6.Cg-Tg(Thy1-YFP)16Jrs/J mice: Thy1-YFP mice were exposed to a vapor anesthetic agent (Isofluorane or Sevofluorane), in an anesthetic induction chamber. Animals were temperature probed, sterile eye lubricant was applied to prevent corneal damage, and an incision was made adjacent to the orbital ridge. The left orbit was exposed, and the lacrimal gland gently resected and covered with saline soaked gauze. […] Using microscissors, the dura was resected, and the optic nerve was transected approximately 0.5 mm from the posterior aspect of the eye bulb. Preservation of blood supply was evaluated through the dissecting microscope focused through a dilated pupil and a coverslip. The skin was closed with suture clips, analgesics (buprenorphine in saline) administered, and the mouse was transferred to an Argon (70%)/Oxygen (30%) perfused air chamber on a warming mat. […] Control mice were exposed to normal atmospheric conditions post-injury (See FIG. 1). Internal surgical controls were the uninjured retina of the contralateral eye.
Retinal Dissection, dissociation, and staining of cells: Mice were lightly anesthetized with Isofluorane and killed via cervical dislocation. Eyes were rapidly removed and placed in ice cold Hank's Balanced Salt Solution (HBSS). A single puncture to the conjunctiva was made, and corneas removed by microdissection. The ciliary epithelium and lens were then resected, and vitreous humor was visualized using triamcinolone acetonide solution to aid in removal by aspiration and microdissection. Free floating retinas were then transferred to fresh HBSS on ice, then transferred to 1 ml of enzyme solution containing Trypsin (MACS—Miltenyi Biotec). Following a 15 minute incubation at 37 degrees C. with periodic agitation, retinas were dissociated with fire polished pipettes and centrifuged. Pellets were washed in Annexin V binding buffer, and centrifuged. Pellets were the re-dissociated in DNAse-containing binding buffer, and stained for Annexin V-PeCy7 probe. Cells were washed, cell strained (40 um), and analyzed using a BD FacsAria III flow cytometer.
Flow cytometry and data analysis: Compensation and gating was established using unstained, YFP-only, Annexin V-only, and double-labeled cell samples. Dead cell assays (not shown) were also performed using propidium iodide and 7-AAD DNA intercalating dyes. Forward and side scatter gating were used to exclude debris, and YFP-positive cells were gated and used as the reference population. Quadrant analysis was used to identify and quantify Annexin V labeling within YFP expressing cells across groups. A within-subjects comparison was performed by comparing injured and uninjured retinas from the same animal. Difference scores (uninjured—injured Annexin V cell counts) were produced in order to normalize Annexin V background labeling in right eyes. All data are represented as means +/−1.0 standard error of the mean.

Structure (SMILES) | concentration with capacity to provide anesthesia [1] | difference score (uninjured - injured Annexin V cell counts within YFP-positive population) ([2]; 24 h post-injury, Argon (70%)/Oxygen (30%) chamber after surgery under Isofluorane or Sevofluorane, buprenorphine) | Annexin V binding in injured retinas ([2]; 48 h post-injury, Argon (70%)/Oxygen (30%) chamber post-injury) | neuroprotection ([2]; 72 hours post-injury) | neuroprotective effect in combination with liquid anesthetics ([2]; overall conclusion from the data) | time of peak of neuroprotection effect size ([2]; post-injury, Argon (70%)/Oxygen (30%)) | anesthetic effects ([1]; high inspiratory concentrations)
[Xe] [Xenon, xenon, reference compound] | 71% | – | – | – | – | – | –
[Ar] [argon] | – | positive difference score | strong resistance to Annexin V binding | retained at 72 hours | provides a neuroprotective effect within the central nervous system | around 48 h | does not provide anesthetic effects
